Measurements reported in patent US6737383B1, “Herbicidal oxadiazolidines” (priority 1999, dated 2004).

What was measured:
rice = experiment: Test B flood test rice; format: in vivo, Oryza sativa
Procedure, shortened: (§1)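 Each value is a visual injury score relative to controls, with 10 meaning complete control and 0 no effect. Evaluation took place twelve to sixteen days after the 2-leaf-stage plants were treated and kept in the greenhouse.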

rape = experiment: Test B pre/postemergence rape; format: in vivo, Brassica napus
Procedure, shortened: (§2)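 Herbicidal effect was estimated by eye on a ten-point control scale after plants spent twelve to sixteen days in a greenhouse following soil or foliar treatment. Foliar sprays targeted plants at one to four leaves; all doses were formulated in a non-phytotoxic solvent with surfactant.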

pigweed = experiment: Test B pre/postemergence pigweed; format: in vivo, Amaranthus retroflexus
Procedure, shortened: as §2

velvetleaf = experiment: Test B pre/postemergence velvetleaf; format: in vivo, Abutilon theophrasti
Procedure, shortened: as §2

morningglory = experiment: Test B pre/postemergence morningglory; format: in vivo, Ipomoea hederacea
Procedure, shortened: as §2

sugar beet = experiment: Test B pre/postemergence sugar beet; format: in vivo, Beta vulgaris
Procedure, shortened: as §2

surinam grass = experiment: Test B pre/postemergence surinam grass; format: in vivo, Brachiaria decumbens
Procedure, shortened: as §2

bamyardgrass = experiment: Test B flood test barnyardgrass; format: in vivo, Echinochloa crus-galli
Procedure, shortened: as §1

corn = experiment: Test B pre/postemergence corn; format: in vivo, Zea mays
Procedure, shortened: as §2

soybean = experiment: Test B pre/postemergence soybean; format: in vivo, Glycine max
Procedure, shortened: as §2

blackgrass = experiment: Test B pre/postemergence blackgrass; format: in vivo, Alopecurus myosuroides
Procedure, shortened: as §2

bedstraw = experiment: Test B pre/postemergence bedstraw; format: in vivo, Galium aparine
Procedure, shortened: as §2

giant foxtail = experiment: Test B pre/postemergence giant foxtail; format: in vivo, Setaria faberii
Procedure, shortened: as §2

smallflower flatsedge = experiment: Test B flood test smallflower flatsedge; format: in vivo, Cyperus difformis
Procedure, shortened: as §1

duck salad = experiment: Test B flood test duck salad; format: in vivo, Heteranthera limosa
Procedure, shortened: as §1

purple nutsedge = experiment: Test B pre/postemergence purple nutsedge; format: in vivo, Cyperus rotundus
Procedure, shortened: as §2

[1] = Postemergence (flood test species), Rate 125 g/ha, scale of 0 to 10 where 0 is no effect and 10 is complete control
[2] = Rate 62 g/ha, Postemergence section, flood test species, scale of 0 to 10 where 0 is no effect and 10 is complete control
[3] = Rate 250 g/ha, Postemergence (flood test), scale 0 to 10, 0 is no effect, 10 is complete control
[4] = Rate 500 g/ha, listed under Postemergence (flood test species), scale 0 to 10
[5] = Postemergence, Rate 125 g/ha, scale of 0 to 10 where 0 is no effect and 10 is complete control
[6] = Preemergence, Rate 62 g/ha, scale of 0 to 10 where 0 is no effect and 10 is complete control
[7] = Preemergence, Rate 125 g/ha, 0 is no effect, 10 is complete control
[8] = Preemergence, Rate 250 g/ha, scale 0 to 10, 0 is no effect, 10 is complete control
[9] = Preemergence, Rate 500 g/ha, scale 0 to 10 (0 no effect, 10 complete control)
[10] = Rate 62 g/ha, Postemergence, scale of 0 to 10 where 0 is no effect and 10 is complete control
[11] = Rate 250 g/ha, Postemergence, scale 0 to 10, 0 is no effect, 10 is complete control
[12] = Rate 500 g/ha, Postemergence, scale 0 to 10

CC(C)Cn1c(=O)on(C(=O)N(c2ccc(F)cc2)C(C)C)c1=O [Compound 169]
4: Blackgrass plant response rating (blackgrass; [5])
0: Rice plant response rating (rice; [1]) | Rice plant response rating (rice; [2]) | Plant response rating, Rice (rice; [3]) | Rice plant response rating (rice; [4]) | Rape plant response rating (rape; [5]) | Rape plant response rating (rape; [10]) | Plant response rating, Rape (rape; [11]) | Redroot pigweed plant response rating (pigweed; [5]) | Redroot pigweed plant response rating (pigweed; [10]) | Plant response rating, Redroot pigweed (pigweed; [11]) | Plant response rating, Velvetleaf (velvetleaf; [11]) | Velvetleaf plant response rating (velvetleaf; [12]) | Morningglory plant response rating (morningglory; [6]) | Morningglory plant response rating (0 to 10 scale) (morningglory; [7]) | Morningglory plant response rating (morningglory; [8]) | Morningglory plant response rating (morningglory; [9]) | Sugarbeets plant response rating (sugar beet; [5]) | Sugarbeets plant response rating (sugar beet; [6]) | Sugarbeets plant response rating (0 to 10 scale) (sugar beet; [7]) | Sugarbeets plant response rating (sugar beet; [10]) | Plant response rating, Sugarbeets (sugar beet; [11]) | Sugarbeets plant response rating (sugar beet; [12]) | B. signalgrass plant response rating (surinam grass; [5]) | B. signalgrass plant response rating (surinam grass; [10]) | Plant response rating, B. signalgrass (surinam grass; [11]) | Barnyardgrass plant response rating (bamyardgrass; [1]) | Barnyardgrass plant response rating (bamyardgrass; [2]) | Plant response rating, Barnyardgrass (bamyardgrass; [3]) | Barnyardgrass plant response rating (bamyardgrass; [4]) | Corn plant response rating (corn; [5]) | Corn plant response rating (corn; [6]) | Corn plant response rating (0 to 10 scale) (corn; [7]) | Corn plant response rating (corn; [10]) | Plant response rating, Corn (corn; [11]) | Corn plant response rating (corn; [12]) | Soybean plant response rating (soybean; [6]) | Soybean plant response rating (0 to 10 scale) (soybean; [7]) | Bedstraw plant response rating (bedstraw; [6]) | Bedstraw plant response rating (0 to 10 scale) (bedstraw; [7]) | Giant foxtail plant response rating (giant foxtail; [10]) | S. Flatsedge plant response rating (smallflower flatsedge; [1]) | S. Flatsedge plant response rating (smallflower flatsedge; [2]) | Plant response rating, S. Flatsedge (smallflower flatsedge; [3]) | S. Flatsedge plant response rating (smallflower flatsedge; [4]) | Ducksalad plant response rating (duck salad; [1]) | Ducksalad plant response rating (duck salad; [2]) | Plant response rating, Ducksalad (duck salad; [3]) | Ducksalad plant response rating (duck salad; [4]) | Nutsedge plant response rating (purple nutsedge; [5]) | Nutsedge plant response rating (purple nutsedge; [6]) | Nutsedge plant response rating (0 to 10 scale) (purple nutsedge; [7]) | Nutsedge plant response rating (purple nutsedge; [8]) | Nutsedge plant response rating (purple nutsedge; [10]) | Plant response rating, Nutsedge (purple nutsedge; [11]) | Nutsedge plant response rating (purple nutsedge; [12])
7: Morningglory plant response rating (morningglory; [12]) | Sugarbeets plant response rating (sugar beet; [8]) | B. signalgrass plant response rating (surinam grass; [6]) | B. signalgrass plant response rating (0 to 10 scale) (surinam grass; [7]) | B. signalgrass plant response rating (surinam grass; [8]) | B. signalgrass plant response rating (surinam grass; [9]) | B. signalgrass plant response rating (surinam grass; Rate 500 g/ha, Postemergence, scale 0 to 10, 0 no effect, 10 complete control) | Bedstraw plant response rating (bedstraw; [8]) | Plant response rating, Bedstraw (bedstraw; [11])
2: Rape plant response rating (rape; [6]) | Rape plant response rating (0 to 10 scale) (rape; [7]) | Velvetleaf plant response rating (velvetleaf; [6]) | Velvetleaf plant response rating (0 to 10 scale) (velvetleaf; [7]) | Soybean plant response rating (soybean; [8]) | Blackgrass plant response rating (blackgrass; [10]) | Bedstraw plant response rating (bedstraw; [5]) | Bedstraw plant response rating (bedstraw; [10]) | Giant foxtail plant response rating (giant foxtail; [5])
9: Blackgrass plant response rating (blackgrass; [12]) | Giant foxtail plant response rating (giant foxtail; [12])
1: Morningglory plant response rating (morningglory; [5]) | Morningglory plant response rating (morningglory; [10]) | Soybean plant response rating (soybean; [5]) | Soybean plant response rating (soybean; [10])
8: Redroot pigweed plant response rating (pigweed; [8]) | Redroot pigweed plant response rating (pigweed; [9]) | Velvetleaf plant response rating (velvetleaf; [9]) | Sugarbeets plant response rating (sugar beet; [9]) | Blackgrass plant response rating (blackgrass; [8])
5: Plant response rating, Morningglory (morningglory; [11]) | Soybean plant response rating (soybean; [9]) | Plant response rating, Blackgrass (blackgrass; [11])
3: Rape plant response rating (rape; [12]) | Redroot pigweed plant response rating (pigweed; [12]) | Corn plant response rating (corn; [8]) | Plant response rating, Soybean (soybean; [11]) | Blackgrass plant response rating (blackgrass; [6]) | Blackgrass plant response rating (0 to 10 scale) (blackgrass; [7]) | Nutsedge plant response rating (purple nutsedge; [9])
10: Rape plant response rating (rape; [9]) | Blackgrass plant response rating (blackgrass; [9]) | Bedstraw plant response rating (bedstraw; [9]) | Giant foxtail plant response rating (giant foxtail; [6]) | Giant foxtail plant response rating (0 to 10 scale) (giant foxtail; [7]) | Giant foxtail plant response rating (giant foxtail; [8]) | Giant foxtail plant response rating (giant foxtail; [9])
6: Rape plant response rating (rape; [8]) | Redroot pigweed plant response rating (pigweed; [6]) | Redroot pigweed plant response rating (0 to 10 scale) (pigweed; [7]) | Velvetleaf plant response rating (velvetleaf; [8]) | Corn plant response rating (corn; [9]) | Soybean plant response rating (soybean; [12]) | Plant response rating, Giant foxtail (giant foxtail; [11])
